In DBAASP:
Converted amounts (≈) assume the structure as drawn. “And” between values parts separate entries of the source, which are not always exact repeats. Equal values may be shown once. One block for each molecule: values may come before it.

Experiments:
Assay in all cases: ≥ marks a high value that may be exact or a test limit, other limits are often not marked, values filed in µg/mL are converted to µM
[1] = tested on: Escherichia coli DC2
[2] = tested on: Escherichia coli DSM 1103
[3] = tested on: Klebsiella pneumoniae DSM 681
[4] = tested on: Escherichia coli BL21AI
[5] = tested on: Bacillus subtilis DSM 347
[6] = tested on: Micrococcus luteus ATCC 10240
[7] = tested on: Bacillus subtilis ATCC 23857
[8] = tested on: Pseudomonas aeruginosa ATCC 27853
[9] = tested on: Pseudomonas aeruginosa ATCC 9027
[10] = tested on: Escherichia coli 804
[11] = tested on: Acinetobacter baumannii ATCC 19606
[12] = tested on: Staphylococcus epidermidis ATCC 12228
[13] = tested on: Escherichia coli 780
[14] = tested on: Staphylococcus aureus 113
[15] = tested on: Klebsiella pneumoniae ATCC 700603
[16] = tested on: Pseudomonas aeruginosa 50
[17] = tested on: Staphylococcus aureus ATCC 29213
[18] = tested on: Escherichia coli ATCC 25922
[19] = tested on: Staphylococcus aureus 75
[20] = tested on: Pseudomonas aeruginosa 73
[21] = tested on: Acinetobacter baumannii 97830
[22] = tested on: Staphylococcus aureus ATCC 25923
[23] = tested on: Acinetobacter baumannii 9931
[24] = tested on: Bacillus subtilis DELTA
[25] = tested on: Pseudomonas aeruginosa PAO1
[26] = tested on: Zymomonas mobilis ATCC 10988
[27] = tested on: Escherichia coli DH5alpha
[28] = tested on: Candida parapsilosis
[29] = tested on: Bacillus licheniformis X39
[30] = tested on: Psychrobacter faecalis X29
[31] = tested on: Staphylococcus aureus ATCC 2592
[32] = tested on: Serratia rubidaea X01
[33] = tested on: Rhodococcus rhodochrous X15
[34] = tested on: Staphylococcus carnosus KHS
[35] = tested on: Escherichia coli UB1005
[36] = tested on: Pseudomonas aeruginosa H547
[37] = tested on: Pseudomonas aeruginosa H744
[38] = tested on: Pseudomonas aeruginosa Z61
[39] = tested on: Salmonella enterica subsp. enterica serovar Typhimurium ATCC 14028s
[40] = tested on: Pseudomonas aeruginosa K799
[41] = tested on: Pseudomonas aeruginosa H374

MIC [1]: 3.54 µM (≈ 7.81 µg/mL)
MIC [2]: 1.77 µM (≈ 3.9 µg/mL)
MIC [3]: 14.2 µM (≈ 31.2 µg/mL)
MIC [4]: 3.54 µM (≈ 7.81 µg/mL)
MIC [5]: ≥ 56.6 µM
MIC [6]: 0.109 µM (≈ 0.24 µg/mL)
SMILES: CC[C@H](C)[C@H](NC(=O)[C@H](Cc1ccc(O)cc1)NC(=O)[C@@H](NC(=O)[C@@H]1CCCN1C(=O)[C@H](CCCCN)NC(=O)[C@H](CC(N)=O)NC(=O)[C@H](CC(N)=O)NC(=O)CN)C(C)C)C(=O)N1CCC[C@H]1C(=O)N[C@@H](CCCN=C(N)N)C(=O)N1CCC[C@H]1C(=O)N[C@@H](CCCN=C(N)N)C(=O)N1CCC[C@H]1C(=O)N1CCC[C@H]1C(=O)N[C@@H](Cc1cnc[nH]1)C(=O)N1CCC[C@H]1C(=O)N[C@@H](CCCN=C(N)N)C(=O)N[C@@H](CC(C)C)C(=O)N[C@H](C(N)=O)C(C)C [GNNKPVYIPRPRPPHPRLV]

MIC [7]: 16 µM (≈ 16 µg/mL)
MIC [8]: > 128 µM
MIC [9]: > 128 µM
MIC [10]: ≥ 128 µM
MIC [11]: > 128 µM
MIC [12]: 64 µM (≈ 64.1 µg/mL)
MIC [13]: ≥ 128 µM
MIC [14]: ≥ 64 µM
MIC [15]: > 128 µM
MIC [16]: ≥ 128 µM
MIC [17]: 8 µM (≈ 8.02 µg/mL)
MIC [18]: > 128 µM
MIC [19]: ≥ 64 µM
MIC [20]: ≥ 128 µM
MIC [21]: ≥ 128 µM
MIC [22]: 64 µM and 128 µM
MIC [23]: ≥ 128 µM
SMILES: NCC(=O)N[C@@H](CCCN=C(N)N)C(=O)N[C@@H](Cc1c[nH]c2ccccc12)C(=O)N[C@@H](Cc1c[nH]c2ccccc12)C(=O)N[C@@H](Cc1c[nH]c2ccccc12)C(=O)N[C@@H](CCCN=C(N)N)C(=O)NCC(N)=O [GRWWWRG]

MIC [24]: 6.15 µM (≈ 6.99 µg/mL)
MIC [25]: 2.63 µM (≈ 3 µg/mL)
MIC [26]: 13.2 µM (≈ 15 µg/mL)
MIC [27]: ≥ 87.8 µM
MIC [28]: 6.15 µM (≈ 6.99 µg/mL)
SMILES: CC[C@H](C)[C@H](NC(=O)[C@H](CCCCN)NC(=O)[C@H](CC(C)C)NC(=O)[C@H](CC(C)C)NC(=O)CN)C(=O)N[C@H](C(=O)N[C@@H](CCCCN)C(=O)N[C@@H](CCCCN)C(=O)N[C@@H](CC(C)C)C(=O)N[C@@H](CC(C)C)C(N)=O)[C@@H](C)CC [GLLKIIKKLL]

MIC [7]: 8 µM (≈ 8.69 µg/mL)
MIC [8]: 64 µM (≈ 69.5 µg/mL)
MIC [9]: 64 µM (≈ 69.5 µg/mL)
MIC [10]: ≥ 64 µM
MIC [11]: 128 µM (≈ 139 µg/mL)
MIC [12]: 8 µM (≈ 8.69 µg/mL)
MIC [13]: ≥ 64 µM
MIC [14]: ≥ 32 µM
MIC [15]: 64 µM (≈ 69.5 µg/mL)
MIC [16]: ≥ 64 µM
MIC [17]: 32 µM (≈ 34.8 µg/mL)
MIC [19]: ≥ 32 µM
MIC [20]: ≥ 128 µM
MIC [21]: ≥ 128 µM
MIC [23]: ≥ 128 µM
SMILES: CC(C)[C@H](N)C(=O)N[C@@H](CCCN=C(N)N)C(=O)N[C@@H](Cc1c[nH]c2ccccc12)C(=O)N[C@@H](Cc1c[nH]c2ccccc12)C(=O)N[C@@H](Cc1c[nH]c2ccccc12)C(=O)N[C@@H](CCCN=C(N)N)C(=O)N[C@H](C(N)=O)C(C)C [VRWWWRV]

MIC [29]: 10 µM (≈ 50.3 µg/mL)
MIC [30]: 0.6 µM (≈ 3.02 µg/mL)
MIC [31]: 0.6 µM (≈ 3.02 µg/mL)
MIC [18]: 5 µM (≈ 25.1 µg/mL)
MIC [32]: 10 µM (≈ 50.3 µg/mL)
MIC [33]: 0.3 µM (≈ 1.51 µg/mL)
MIC [34]: 1.3 µM (≈ 6.54 µg/mL)
SMILES: CC[C@H](C)[C@H](NC(=O)CNC(=O)[C@H](CCCCN)NC(=O)[C@@H](NC(=O)[C@H](CC(C)C)NC(=O)CNC(=O)[C@H](CC(N)=O)NC(=O)[C@H](CCCCN)NC(=O)[C@@H](NC(=O)[C@H](Cc1c[nH]c2ccccc12)NC(=O)[C@H](CO)NC(=O)CNC(=O)[C@H](CCCCN)NC(=O)CNC(=O)[C@H](CCCCN)NC(=O)[C@H](CCCCN)NC(=O)[C@H](Cc1ccccc1)NC(=O)[C@H](CO)NC(=O)[C@@H](NC(=O)[C@@H](N)CCCN=C(N)N)[C@@H](C)CC)[C@@H](C)CC)[C@@H](C)CC)C(=O)N[C@@H](CCCCN)C(=O)NCC(=O)N[C@@H](CC(C)C)C(=O)NCC(=O)N[C@@H](CCCCN)C(=O)N[C@@H](CCC(=O)O)C(=O)N[C@H](C(=O)N[C@@H](CO)C(=O)N[C@@H](CC(C)C)C(=O)N[C@@H](CC(=O)O)C(=O)N[C@H](C(=O)N[C@H](C(=O)N[C@@H](CCCN=C(N)N)C(=O)N[C@H](C(=O)NCC(=O)N[C@H](C(=O)N[C@@H](CC(=O)O)C(=O)N[C@H](C(=O)N[C@@H](C)C(=O)NCC(=O)N[C@H]1CSSC[C@@H](C(=O)O)NC(=O)[C@H](CCC(=O)O)NC(=O)CNC(=O)[C@H](CCCCN)NC(=O)[C@H]([C@@H](C)CC)NC(=O)[C@H](CCCCN)NC1=O)[C@@H](C)CC)[C@@H](C)CC)[C@@H](C)O)[C@@H](C)CC)C(C)C)[C@@H](C)CC [RISFKKGKGSWIKNGLIKGIKGLGKEISLDVIRTGIDIAGCKIKGEC]

MIC [35]: 1.43 µM (≈ 4 µg/mL)
MIC [36]: 11.4 µM (≈ 32 µg/mL)
MIC [37]: 5.71 µM (≈ 16 µg/mL)
MIC [38]: 11.4 µM (≈ 32 µg/mL)
MIC [39]: 15.3 µM (≈ 43 µg/mL)
MIC [40]: 22.8 µM (≈ 64 µg/mL)
MIC [41]: 2.85 µM (≈ 8 µg/mL)
SMILES: CC[C@H](C)[C@H](NC(=O)[C@H](CC(C)C)NC(=O)[C@H](C)NC(=O)[C@@H]1CCCN1C(=O)[C@H](CC(C)C)NC(=O)CNC(=O)[C@@H](NC(=O)[C@@H](NC(=O)[C@H](CC(C)C)NC(=O)[C@@H](NC(=O)[C@H](CCCCN)NC(=O)[C@H](CO)NC(=O)CNC(=O)CNC(=O)[C@H](CCCCN)NC(=O)[C@@H](NC(=O)[C@H](CC(C)C)NC(=O)[C@H](CC(N)=O)NC(=O)[C@H](CCCCN)NC(=O)[C@@H](NC(=O)[C@H](Cc1ccccc1)NC(=O)[C@H](CO)NC(=O)[C@H](CCCCN)NC(=O)[C@H](Cc1c[nH]c2ccccc12)NC(=O)[C@@H](N)CCCCN)[C@@H](C)CC)[C@@H](C)O)[C@@H](C)CC)[C@@H](C)O)[C@@H](C)O)C(=O)N[C@@H](CO)C(=O)O [KWKSFIKNLTKGGSKILTTGLPALIS]

MIC [35]: 11.5 µM (≈ 32 µg/mL)
MIC [36]: 22.9 µM (≈ 64 µg/mL)
MIC [37]: 22.9 µM (≈ 64 µg/mL)
MIC [38]: 22.9 µM (≈ 64 µg/mL)
MIC [39]: 22.9 µM (≈ 64 µg/mL)
MIC [40]: 22.9 µM (≈ 64 µg/mL)
MIC [41]: 22.9 µM (≈ 64 µg/mL)
SMILES: CC[C@H](C)[C@H](NC(=O)[C@H](CC(C)C)NC(=O)[C@@H]1CCCN1C(=O)[C@H](CCCCN)NC(=O)[C@H](C)NC(=O)[C@@H](NC(=O)[C@@H](NC(=O)[C@H](CC(C)C)NC(=O)[C@@H](NC(=O)[C@H](CO)NC(=O)[C@@H](NC(=O)[C@H](CCCCN)NC(=O)[C@H](C)NC(=O)[C@H](CO)NC(=O)[C@@H](NC(=O)[C@H](CC(C)C)NC(=O)[C@H](CC(C)C)NC(=O)[C@H](CCCCN)NC(=O)[C@@H](NC(=O)[C@H](Cc1ccccc1)NC(=O)[C@H](CO)NC(=O)[C@H](CCCCN)NC(=O)[C@H](CCCCN)NC(=O)[C@@H](N)CCCCN)[C@@H](C)CC)[C@@H](C)O)C(C)C)C(C)C)[C@@H](C)O)[C@@H](C)O)C(=O)N[C@@H](CO)C(=O)N[C@@H](CO)C(=O)O [KKKSFIKLLTSAKVSVLTTAKPLISS]
